In brackets after ≈: the same amount, converted by molar mass. *1 amine or outer side, *2 acyl side, *3 side chain or, on linkers, in order; H or OH if unused. Where a SMILES comes first, the peptide text is derived from it. Bridges are numbered along the chain shown (N, C = ends). [ ]: non-standard residue; d: D form. The star is where a group is joined. C20 diacid = O=C(O)CCCCCCCCCCCCCCCCCCC(=O)*; γGlu = O=C(O)[C@H](CCC(=O)[*:2])N[*:1]; AEEA = NCCOCCOCC(=O)O
Experiments:
[1] = Solubility of the compound in lactate at pH 4 by UPLC analysis; assay type: physicochemical; conditions: lactate buffer
[2] = Agonist activity at human AMY3R (CT+RAMP3) expressed in Hollex1 cells incubated for 3 hrs by luminescence assay; assay type: cell-based; conditions: Hollex1, 3 h
[3] = Solubility of the compound in lactate at pH 3 by UPLC analysis; assay type: physicochemical; conditions: lactate buffer
Rattus norvegicus [4] = species on record: Rattus norvegicus; experiment: Ratio of EC50 for rat calcitonin receptor expressed in BHK-13 cells to EC50 for rat AMY3R (CT+RAMP3) expressed in tk-ts13 cells; assay type: cell-based
[5] = Agonist activity at rat AMY3R (CT+RAMP3) expressed in tk-ts13 cells assessed as increase in intracellular cAMP level incuabted for 25 mins by CRE luciferase reporter gene assay; assay type: cell-based; conditions: tk-ts13, 25 min
[6] = Solubility of the compound in bis-tris propane at pH 6.5 by UPLC analysis; assay type: physicochemical; conditions: bis-tris propane buffer
Rattus norvegicus [7] = experiment: Reduction in food intake in Sprague-Dawley rat at 3 nmol/kg, sc administered as single dose measured after 24 to 48 hrs relative to control; assay type: functional; parameters: scale not given: the % may be the effect or the level left; conditions: time 24-48 hrs
Insulin (Homo sapiens) [8] = target: Insulin (Homo sapiens) (UniProt P01308); experiment: Effect on insulin (unknown origin) amyloid fibril formation assessed as peptide recovery in glycyl-glycine buffer at pH 4 measured after 45 hrs by thioflavin-T fluorescence assay relative to control; parameters: concentration or dose not given beside the values
[9] = Agonist activity at human calcitonin receptor expressed in BHK570 cells assessed as increase in intracellular cAMP concentration incubated for 3 hrs in absence of albumin by CRE luciferase reporter gene assay; assay type: cell-based; conditions: BHK570, 3 h
Insulin (Homo sapiens) [10] = target: Insulin (Homo sapiens) (UniProt P01308); experiment: Effect on insulin (unknown origin) amyloid fibril formation assessed as lag time in glycyl-glycine buffer at pH 4 measured after 45 hrs by thioflavin-T fluorescence assay
[11] = Solubility of the compound in bis-tris propane at pH 8 by UPLC analysis; assay type: physicochemical; conditions: bis-tris propane buffer
[12] = Solubility of the compound in bis-tris propane at pH 6 by UPLC analysis; assay type: physicochemical; conditions: bis-tris propane buffer
[13] = Solubility of the compound in lactate at pH 5 by UPLC analysis; assay type: physicochemical; conditions: lactate buffer
[14] = Agonist activity at rat calcitonin receptor expressed in BHK-13 cells assessed as increase in intracellular cAMP concentration incubated for 25 mins by CRE luciferase reporter gene assay; assay type: cell-based; conditions: BHK-13, 25 min
Rattus norvegicus [15] = experiment: Reduction in food intake in Sprague-Dawley rat at 3 nmol/kg, sc administered as single dose measured upto 24 hrs relative to control; assay type: functional; parameters: scale not given: the % may be the effect or the level left; conditions: time hrs <=24
[16] = Solubility of the compound in bis-tris propane at pH 7 by UPLC analysis; assay type: physicochemical; conditions: bis-tris propane buffer
[17] = Solubility of the compound in bis-tris propane at pH 7.5 by UPLC analysis; assay type: physicochemical; conditions: bis-tris propane buffer
Homo sapiens = species on record: Homo sapiens; experiment: Ratio of EC50 for human calcitonin receptor expressed in BHK570 cells to EC50 for human AMY3R (CT+RAMP3) expressed in Hollex1 cells; assay type: cell-based

Insulin (Homo sapiens), sequence (P01308 whole entry): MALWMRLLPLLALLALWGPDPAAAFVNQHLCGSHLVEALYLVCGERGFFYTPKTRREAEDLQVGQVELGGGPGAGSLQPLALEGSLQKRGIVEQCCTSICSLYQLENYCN

Work on CC[C@H](C)[C@H](NC(=O)[C@@H]1CCCN1C(=O)CNC(=O)[C@H](Cc1ccccc1)NC(=O)[C@H](CC(N)=O)NC(=O)[C@H](C)NC(=O)[C@H](CO)NC(=O)[C@H](CO)NC(=O)[C@H](CCCNC(=N)N)NC(=O)[C@H](Cc1cnc[nH]1)NC(=O)[C@H](CC(C)C)NC(=O)[C@H](Cc1ccccc1)NC(=O)[C@H](CCC(=O)O)NC(=O)[C@H](C)NC(=O)[C@H](CC(C)C)NC(=O)[C@H](CCCNC(=N)N)NC(=O)[C@H](CCC(N)=O)NC(=O)[C@@H](NC(=O)[C@H](C)NC(=O)[C@@H]1CSSC[C@H](NC(=O)[C@H](CCCCN)NC(=O)[C@@H](CCCNC(=N)N)NC(=O)[C@@H](CCCNC(=N)N)NC(=O)COCCOCCNC(=O)COCCOCCNC(=O)CC[C@H](NC(=O)CCCCCCCCCCCCCCCCCCC(=O)O)C(=O)O)C(=O)N[C@@H](CC(N)=O)C(=O)N[C@@H]([C@@H](C)O)C(=O)N[C@@H](C)C(=O)N[C@@H]([C@@H](C)O)C(=O)N1)[C@@H](C)O)C(=O)N[C@@H](CC(C)C)C(=O)N1CCC[C@H]1C(=O)N1CCC[C@H]1C(=O)N[C@H](C(=O)N[C@@H](CC(N)=O)C(=O)N[C@H](C(=O)NCC(=O)N[C@@H](CO)C(=O)N[C@@H](CO)C(=O)N[C@H](C(=O)N[C@@H](Cc1ccc(O)cc1)C(N)=O)[C@@H](C)O)C(C)C)[C@@H](C)O ({C20 diacid-γGlu-AEEA-AEEA}-[dR][dR]KCNTATCATQRLAEFLHRSSANFGPILPPTNVGSSTY-NH2; disulfide 4-9) yielded a solubility [1] of 200 µM (≈ 1000 µg/mL), an EC50 [2] of 0.14 nM and a solubility [3] of 200 µM (≈ 1000 µg/mL). It also gave a Ratio EC50 (Rattus norvegicus [4]) of 19, an EC50 [5] of 0.233 nM and a solubility [6] of 200 µM (≈ 1000 µg/mL). The Activity (Rattus norvegicus [7]) was 0%, the Activity (Insulin (Homo sapiens) [8]) was 94% and the EC50 [9] was 1.08 nM. The TIME (Insulin (Homo sapiens) [10]) was 45 h, the solubility [11] was 200 µM (≈ 1000 µg/mL) and the solubility [12] was 200 µM (≈ 1000 µg/mL). It also gave a solubility [13] of 200 µM (≈ 1000 µg/mL), an EC50 [14] of 4.48 nM and an Activity (Rattus norvegicus [15]) of 16%. It also gave a solubility [16] of 200 µM (≈ 1000 µg/mL), a solubility [17] of 200 µM (≈ 1000 µg/mL) and a Ratio EC50 (Homo sapiens) of 8.
CC[C@H](C)[C@H](NC(=O)[C@@H]1CCCN1C(=O)CNC(=O)[C@H](Cc1ccccc1)NC(=O)[C@H](CC(N)=O)NC(=O)[C@H](CC(N)=O)NC(=O)[C@H](CO)NC(=O)[C@H](CO)NC(=O)[C@H](Cc1cnc[nH]1)NC(=O)[C@H](Cc1cnc[nH]1)NC(=O)[C@H](CC(C)C)NC(=O)[C@H](Cc1ccccc1)NC(=O)[C@H](CCC(=O)O)NC(=O)[C@H](C)NC(=O)[C@H](CC(C)C)NC(=O)[C@H](CCCNC(=N)N)NC(=O)[C@H](CCC(N)=O)NC(=O)[C@@H](NC(=O)[C@H](C)NC(=O)[C@@H]1CSSC[C@H](NC(=O)[C@H](CCCNC(=N)N)NC(=O)CC[C@H](NC(=O)CC[C@H](NC(=O)CCCCCCCCCCCCCCCCCCC(=O)O)C(=O)O)C(=O)O)C(=O)N[C@@H](CC(N)=O)C(=O)N[C@@H]([C@@H](C)O)C(=O)N[C@@H](C)C(=O)N[C@@H]([C@@H](C)O)C(=O)N1)[C@@H](C)O)C(=O)N[C@@H](CC(C)C)C(=O)N1CCC[C@H]1C(=O)N1CCC[C@H]1C(=O)N[C@H](C(=O)N[C@@H](CC(N)=O)C(=O)N[C@H](C(=O)NCC(=O)N[C@@H](CO)C(=O)N[C@@H](CC(N)=O)C(=O)N[C@H](C(=O)N[C@@H](Cc1ccc(O)cc1)C(N)=O)[C@@H](C)O)C(C)C)[C@@H](C)O ({C20 diacid-γGlu-γGlu}-RCNTATCATQRLAEFLHHSSNNFGPILPPTNVGSNTY-NH2; disulfide 2-7) gave a solubility [1] of 200 µM (≈ 923 µg/mL), an EC50 [2] of 0.129 nM and a solubility [3] of 200 µM (≈ 923 µg/mL). For the same compound, the Ratio EC50 (Rattus norvegicus [4]) was 5, the EC50 [5] was 0.277 nM and the solubility [6] was 200 µM (≈ 923 µg/mL). For the same compound, the Activity (Rattus norvegicus [7]) was 39%, the Activity (Insulin (Homo sapiens) [8]) was 0% and the EC50 [9] was 0.205 nM. The TIME (Insulin (Homo sapiens) [10]) was 2 h, the solubility [11] was 200 µM (≈ 923 µg/mL) and the solubility [12] was 200 µM (≈ 923 µg/mL). The solubility [13] was 200 µM (≈ 923 µg/mL), the EC50 [14] was 1.34 nM and the Activity (Rattus norvegicus [15]) was 46%. The solubility [16] was 200 µM (≈ 923 µg/mL), the solubility [17] was 200 µM (≈ 923 µg/mL) and the Ratio EC50 (Homo sapiens) was 2.

— ChEMBL document CHEMBL4842340, “Development of Cagrilintide, a Long-Acting Amylin Analogue” (J Med Chem, 2021)
